Target: T1, mGlyT-1b (Mus musculus, UniProt P28571)
T1 construct: host or cells: Flp-in CHO cells, stably transfected
T1 sequence (P28571 1-651 isoform P28571-2): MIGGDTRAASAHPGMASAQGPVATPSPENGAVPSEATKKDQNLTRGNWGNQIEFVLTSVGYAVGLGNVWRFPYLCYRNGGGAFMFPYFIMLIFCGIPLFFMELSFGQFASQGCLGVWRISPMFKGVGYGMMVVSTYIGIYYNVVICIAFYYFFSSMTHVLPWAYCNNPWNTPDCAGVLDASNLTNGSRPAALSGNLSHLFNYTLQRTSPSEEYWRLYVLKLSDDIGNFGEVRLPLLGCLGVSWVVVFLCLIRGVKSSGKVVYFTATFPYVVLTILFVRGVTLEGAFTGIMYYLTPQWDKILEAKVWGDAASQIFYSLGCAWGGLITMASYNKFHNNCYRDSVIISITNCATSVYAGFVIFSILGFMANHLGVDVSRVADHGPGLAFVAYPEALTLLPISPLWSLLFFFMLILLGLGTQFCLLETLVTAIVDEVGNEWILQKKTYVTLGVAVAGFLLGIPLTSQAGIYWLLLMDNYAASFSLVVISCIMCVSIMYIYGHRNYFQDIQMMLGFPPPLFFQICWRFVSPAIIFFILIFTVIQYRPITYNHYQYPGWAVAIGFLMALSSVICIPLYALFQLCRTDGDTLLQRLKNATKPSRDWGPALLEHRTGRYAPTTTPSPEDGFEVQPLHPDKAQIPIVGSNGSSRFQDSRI
Test: Glycine uptake inhibition assay (mGlyT-1b)
Type: cell-based
Conditions: inhibition of [3H]-glycine uptake in Flp-in-CHO cells stably transfected with mGlyT1b cDNA; 20 min at 22° C.
Method: DMEM complete medium: Nutrient mixture F-12 (Gibco Life-technologies), fetal bovine serum (FBS) 5%, (Gibco life technologies), Penicillin/Streptomycin 1% (Gibco life technologies), Hygromycin 0.6 mg/ml (Gibco life technologies), Glutamine 1 mM Gibco life technologies)
Uptake buffer (UB): 150 mM NaCl, 10 mM Hepes-Tris, pH 7.4, 1 mM CaCl2, 2.5 mM KCl, 2.5 mM MgSO4, 10 mM (+) D-glucose. Flp-in™—CHO (Invitrogen Cat n° R758-07)cells stably transfected with mGlyT1b cDNA.
Glycine uptake inhibition assay (mGlyT-1b)
On Day 1 mammallian cells, (Flp-in™—CHO), transfected with mGlyT-1b cDNA, were plated at the density of 40,000 cells/well in complete F-12 medium, without hygromycin in 96-well culture plates. On day 2, the medium was aspirated and the cells were washed twice with uptake buffer (UB). The cells were then incubated for 20 min at 22° C. with either (i) no potential competitor, (ii) 10 mM non-radioactive glycine, (iii) a concentration of a potential inhibitor. A range of concentrations of the potential inhibitor was used to generate data for calculating the concentration of inhibitor resulting in 50% of the effect (e.g. IC50, the concentration of the competitor inhibiting glycine uptake of 50%). A solution was then immediately added containing [^3H]-glycine 60 nM (11-16 Ci/mmol) and 25 μM non-radioactive glycine. The plates were incubated with gentle shaking and the reaction was stopped by aspiration of the mixture and washing (three times) with ice-cold UB. The cells were lysed with scintillation liquid, shaken 3 hours and the radioactivity in the cells was counted using a scintillation counter.

SMILES	IC50
CC(=O)c1ccc(N2CCN(C(=O)c3cc([N+](=O)[O-])ccc3N3CCC(CO)C3)CC2)c(F)c1 (racemic) [Example 175, 1-(3-Fluoro-4-{4-[2-(3-hydroxymethyl-pyrrolidin-1-yl)-5-nitro-benzoyl]-piperazin-1-yl}-phenyl)-ethanone]	9.7 nM
CC(=O)c1ccc(N2CCN(C(=O)c3cc([N+](=O)[O-])ccc3N3CCOCC3)CC2)c(F)c1 [Example 1, 1-{4-[4-(2-Morpholin-4-yl-5-nitro-benzoyl)-piperazin-1-yl]-3-fluoro-phenyl}-ethanone]	15 nM
CC(=O)c1ccc(N2CCN(C(=O)c3cc([N+](=O)[O-])ccc3NCC3CC3)CC2)c(F)c1 [Example 4, 1-(4-{4-[2-(Cyclopropylmethyl-amino)-5-nitro-benzoyl]-piperazin-1-yl}-3-fluoro-phenyl)-ethanone]	13 nM
CC(=O)c1ccc(N2CCN(C(=O)c3cc([N+](=O)[O-])ccc3NC3CCCCC3)CC2)c(F)c1 [Example 6, 1-{4-[4-(2-Cyclohexylamino-5-nitro-benzoyl)-piperazin-1-yl]-3-fluoro-phenyl}-ethanone]	10 nM
CCN(CC)c1ccc([N+](=O)[O-])cc1C(=O)N1CCN(c2ccc(C(C)=O)cc2F)CC1 [Example 11, 1-{4-[4-(2-Diethylamino-5-nitro-benzoyl)-piperazin-1-yl]-3-fluoro-phenyl}-ethanone]	15 nM
CC(=O)c1ccc(N2CCN(C(=O)c3cc([N+](=O)[O-])ccc3N3CCCC3)CC2)c(F)c1 [Example 16, 1-{3-Fluoro-4-[4-(5-nitro-2-pyrrolidin-1-yl-benzoyl)-piperazin-1-yl]-phenyl}-ethanone]	12 nM
CC(=O)c1ccc(N2CCN(C(=O)c3cc([N+](=O)[O-])ccc3NC(C)C)CC2)c(F)c1 [Example 18, 1-{3-Fluoro-4-[4-(2-isopropylamino-5-nitro-benzoyl)-piperazin-1-yl]-phenyl}-ethanone]	2.5 nM
CC(=O)c1ccc(N2CCN(C(=O)c3cc([N+](=O)[O-])ccc3NCC(C)C)CC2)c(F)c1 [Example 19, 1-{3-Fluoro-4-[4-(2-isobutylamino-5-nitro-benzoyl)-piperazin-1-yl]-phenyl}-ethanone]	3 nM
CC(=O)c1ccc(N2CCN(C(=O)c3cc([N+](=O)[O-])ccc3NC3CCC3)CC2)c(F)c1 [Example 20, 1-{4-[4-(2-Cyclobutylamino-5-nitro-benzoyl)-piperazin-1-yl]-3-fluoro-phenyl}-ethanone]	2.1 nM
CC(=O)c1ccc(N2CCN(C(=O)c3cc([N+](=O)[O-])ccc3NC3CCCC3)CC2)c(F)c1 [Example 21, 1-{4-[4-(2-Cyclopentylamino-5-nitro-benzoyl)-piperazin-1-yl]-3-fluoro-phenyl}-ethanone]	2.3 nM
CC(=O)c1ccc(N2CCN(C(=O)c3cc([N+](=O)[O-])ccc3N3CCCCC3)CC2)c(F)c1 [Example 27, 1-{3-Fluoro-4-[4-(5-nitro-2-piperidin-1-yl-benzoyl)-piperazin-1-yl]-phenyl}-ethanone]	1.2 nM
CC(=O)c1ccc(N2CCN(C(=O)c3cc([N+](=O)[O-])ccc3N3CCCCCC3)CC2)c(F)c1 [Example 28, 1-{4-[4-(2-Azepan-1-yl-5-nitro-benzoyl)-piperazin-1-yl]-3-fluoro-phenyl}-ethanone]	3.3 nM
CC(=O)c1ccc(N2CCN(C(=O)c3cc([N+](=O)[O-])ccc3N3CCCCC3C)CC2)c(F)c1 (stereo not shown) [Example 35, 1-(3-Fluoro-4-{4-[2-(2-methyl-piperidin-1-yl)-5-nitro-benzoyl]-piperazin-1-yl}-phenyl)-ethanone]	6 nM
CC(=O)c1ccc(N2CCN(C(=O)c3cc([N+](=O)[O-])ccc3N3CCC(C)CC3)CC2)c(F)c1 [Example 36, 1-(3-Fluoro-4-{4-[2-(4-methyl-piperidin-1-yl)-5-nitro-benzoyl]-piperazin-1-yl}-phenyl)-ethanone]	14 nM
CC(=O)c1ccc(N2CCN(C(=O)c3cc([N+](=O)[O-])ccc3N3CCCC(C)C3)CC2)c(F)c1 (stereo not shown) [Example 37, 1-(3-Fluoro-4-{4-[2-(3-methyl-piperidin-1-yl)-5-nitro-benzoyl]-piperazin-1-yl}-phenyl)-ethanone]	7 nM
CC(=O)c1ccc(N2CCN(C(=O)c3cc([N+](=O)[O-])ccc3N3CCCC3C)CC2)c(F)c1 (stereo not shown) [Example 38, 1-(3-Fluoro-4-{4-[2-(2-methyl-pyrrolidin-1-yl)-5-nitro-benzoyl]-piperazin-1-yl}-phenyl)-ethanone]	8 nM
CC(=O)c1ccc(N2CCN(C(=O)c3cc([N+](=O)[O-])ccc3N3CC=CC3)CC2)c(F)c1 [Example 41, 1-(4-{4-[2-(2,5-Dihydro-pyrrol-1-yl)-5-nitro-benzoyl]-piperazin-1-yl}-3-fluoro-phenyl)-ethanone]	14 nM
CC(=O)c1ccc(N2CCN(C(=O)c3cc([N+](=O)[O-])ccc3N3CCSCC3)CC2)c(F)c1 [Example 42, 1-{3-Fluoro-4-[4-(5-nitro-2-thiomorpholin-4-yl-benzoyl)-piperazin-1-yl]-phenyl}-ethanone]	3.5 nM
C=CCN(C)c1ccc([N+](=O)[O-])cc1C(=O)N1CCN(c2ccc(C(C)=O)cc2F)CC1 [Example 43, 1-(4-{4-[2-(Allyl-methyl-amino)-5-nitro-benzoyl]-piperazin-1-yl}-3-fluoro-phenyl)-ethanone]	9 nM
CC(=O)c1ccc(N2CCN(C(=O)c3cc([N+](=O)[O-])ccc3N3CCCC(O)C3)CC2)c(F)c1 (stereo not shown) [Example 45, 1-(3-Fluoro-4-{4-[2-(3-hydroxy-piperidin-1-yl)-5-nitro-benzoyl]-piperazin-1-yl}-phenyl)-ethanone]	19 nM
CC(=O)c1ccc(N2CCN(C(=O)c3cc(S(C)(=O)=O)ccc3N3CCCCCC3)CC2)c(F)c1 [Example 76, 1-{4-[4-(2-Azepan-1-yl-5-methanesulfonyl-benzoyl)-piperazin-1-yl]-3-fluoro-phenyl}-ethanone]	19 nM
CC(=O)c1ccc(N2CCN(C(=O)c3cc(S(C)(=O)=O)ccc3N3CCCC3)CC2)c(F)c1 [Example 83, 1-{3-Fluoro-4-[4-(5-methanesulfonyl-2-pyrrolidin-1-yl-benzoyl)-piperazin-1-yl]-phenyl}-ethanone]	19 nM
CNS(=O)(=O)c1ccc(N2CCCC2)c(C(=O)N2CCN(c3ccc(C(F)(F)F)cc3)CC2)c1 [Example 129, N-Methyl-4-pyrrolidin-1-yl-3-[4-(4-trifluoromethyl-phenyl)-piperazine-1-carbonyl]-benzenesulfonamide]	5 nM
CNS(=O)(=O)c1ccc(N2CCOCC2)c(C(=O)N2CCN(c3ccc(C(F)(F)F)cc3)CC2)c1 [Example 131, N-Methyl-4-morpholin-4-yl-3-[4-(4-trifluoromethyl-phenyl)-piperazine-1-carbonyl]-benzenesulfonamide]	8 nM
CNS(=O)(=O)c1ccc(N2CCCC2)c(C(=O)N2CCN(c3ccc(C(C)=O)cc3F)CC2)c1 [Example 133, 3-[4-(4-Acetyl-2-fluoro-phenyl)-piperazine-1-carbonyl]-N-methyl-4-pyrrolidin-1-yl-benzenesulfonamide]	9 nM
CC(=O)c1ccc(N2CCN(C(=O)c3cc([N+](=O)[O-])ccc3NC(C)(C)C)CC2)c(F)c1 [Example 176, 1-{3-Fluoro-4-[4-(2-tert.-butylamino-5-nitro-benzoyl)-piperazin-1-yl]-phenyl}-ethanone]	20 nM
N#Cc1cc(C(F)(F)F)ccc1N1CCN(C(=O)c2cc([N+](=O)[O-])ccc2N2CCOCC2)CC1 [Example 186, 2-[4-(2-Morpholin-4-yl-5-nitro-benzoyl)-piperazin-1-yl]-5-trifluoromethyl-benzonitrile]	15 nM
CS(=O)(=O)c1ccc(N2CCCCC2)c(C(=O)N2CCN(c3ccc(C#N)cc3F)CC2)c1 [Example 216, 3-Fluoro-4-[4-(5-methanesulfonyl-2-piperidin-1-yl-benzoyl)-piperazin-1-yl]-benzonitrile]	12 nM

— US7427612B2, “Benzoyl-piperazine derivatives” (Hoffmann-La Roche Inc., priority 2003, dated 2008)
